Biological target: T1, Recombinant full length human OGA enzyme (Homo sapiens, UniProt O60502)
T1 construct: Recombinant full length human OGA enzyme was purchased from Origene; purchased Origene
T1 sequence (O60502 1-916): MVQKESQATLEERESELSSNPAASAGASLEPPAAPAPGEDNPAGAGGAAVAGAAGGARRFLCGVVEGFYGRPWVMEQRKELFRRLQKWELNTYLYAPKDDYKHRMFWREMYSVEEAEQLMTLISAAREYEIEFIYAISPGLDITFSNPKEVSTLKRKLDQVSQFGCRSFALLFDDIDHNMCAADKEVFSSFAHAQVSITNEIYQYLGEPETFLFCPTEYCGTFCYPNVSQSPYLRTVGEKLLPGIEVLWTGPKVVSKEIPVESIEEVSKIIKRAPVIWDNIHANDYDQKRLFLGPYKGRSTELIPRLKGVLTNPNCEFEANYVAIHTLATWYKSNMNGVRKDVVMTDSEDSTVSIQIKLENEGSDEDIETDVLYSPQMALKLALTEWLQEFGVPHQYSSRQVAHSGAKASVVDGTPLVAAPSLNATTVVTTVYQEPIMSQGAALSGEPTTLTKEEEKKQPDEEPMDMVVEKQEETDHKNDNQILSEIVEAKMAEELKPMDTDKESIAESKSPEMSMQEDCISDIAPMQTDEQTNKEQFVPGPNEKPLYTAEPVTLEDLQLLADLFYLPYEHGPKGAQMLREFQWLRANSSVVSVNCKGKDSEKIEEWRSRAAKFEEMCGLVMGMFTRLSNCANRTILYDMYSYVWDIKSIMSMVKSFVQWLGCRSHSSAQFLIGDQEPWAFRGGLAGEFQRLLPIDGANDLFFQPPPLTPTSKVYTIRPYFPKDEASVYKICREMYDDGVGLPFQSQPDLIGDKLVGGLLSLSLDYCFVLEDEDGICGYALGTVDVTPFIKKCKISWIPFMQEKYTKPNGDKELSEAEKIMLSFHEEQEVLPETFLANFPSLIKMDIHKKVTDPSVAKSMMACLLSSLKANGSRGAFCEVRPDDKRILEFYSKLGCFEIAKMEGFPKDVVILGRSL
Assay: OGA Enzyme Inhibition Biochemical Assay
Details: 1 nM OGA, 100 μM 4-MUGlcNAc (Km), pH 6.4, 90 minutes at room temperature, 10-point dose-response from 20 μM
Method: OGA Enzyme Inhibition Biochemical Assay
Recombinant full length human OGA enzyme was purchased from Origene. 4-MUGlCNAc substrate was purchased from Sigma. All other reagents were purchased from Sigma or Fisher. Assay buffer consists of the McIlvaine buffer system, pH 6.4 (0.2M Na2HPO4 mixed with 0.1M citric acid) and 0.01% BSA. Reactions consist of 1 nM OGA, 100 μM 4-MUGlcNAc (Km), and compound in a final volume of 10 μl. Reactions were incubated for 90 minutes at room temperature and quenched with 40 μl of 3M glycine, pH 10 and read on a Perkin Elmer Envision plate reader (Ex: 355 nm/Em: 460 nm). Compounds were tested with a 10-point dose-response starting from 20 μM with a 4-fold dilution. Data was fit using GraphPad Prism using a 4-parameter fit with variable slope.

Compared with CC(=O)Nc1ncc(CN2CCC[C@H](Cc3ccc(C(F)F)nc3)C2)s1 [Example 2-8, (R)-N-(5-((3-((6-(difluoromethyl)pyridin-3-yl)methyl)piperidin-1-yl)methyl)thiazol-2-yl)acetamide], CC(=O)Nc1ncc(CN2CCCC(Cc3cncc(F)c3)C2)s1 (stereo not drawn) [Example 1-12, N-(5-((3-((5-fluoropyridin-3-yl)methyl)piperidin-1-yl)methyl)thiazol-2-yl)acetamide] is 2.6-fold lower in IC50: 18 nM for the first, 7 nM for the second. The second is the more potent here.

Going from CC(=O)Nc1ncc(CN2CC[C@H](Cc3ncc(F)c(C)n3)C2)s1 [Example 3-11, (R)-N-(5-((3-((5-fluoro-4-methylpyrimidin-2-yl)methyl)pyrrolidin-1-yl)methyl)thiazol-2-yl)acetamide] to CC(=O)Nc1ncc(CN2CCC(Cc3ccc(F)cn3)C2)s1 (stereo not drawn) [Example 1-25, N-(5-((3-((5-fluoropyridin-2-yl)methyl)pyrrolidin-1-yl)methyl)thiazol-2-yl)acetamide], the IC50 rises from 11 nM to 220 nM (20-fold). The first is the more potent here.

First: CC(=O)Nc1ncc(CN2CCC[C@H](Cc3ccnc(C)n3)C2)s1 [Example 3-4, (R)-N-(5-((3-((2-methylpyrimidin-4-yl)methyl)piperidin-1-yl)methyl)thiazol-2-yl)acetamide]
Second: CC(=O)Nc1ncc(CN2CCCC(Cc3cc(C)ccn3)C2)s1 (stereo not drawn) [Example 1-45, N-(5-((3-((4-methylpyridin-2-yl)methyl)piperidin-1-yl)methyl)thiazol-2-yl)acetamide]
The IC50 of the first is lower: < 1 nM for the first, 24 nM for the second. The first is the more potent here.

CC(=O)Nc1ncc(CN2CCCC(Cc3csc(C)n3)C2)s1 (stereo not drawn) [Example 1-36, N-(5-((3-((2-methylthiazol-4-yl)methyl)piperidin-1-yl)methyl)thiazol-2-yl)acetamide] and CC(=O)Nc1ncc(CN2CCCC(Cc3cscn3)C2)s1 (stereo not drawn) [Example 1-38, N-(5-((3-(thiazol-4-ylmethyl)piperidin-1-yl)methyl)thiazol-2-yl)acetamide] are within 1.5-fold of each other in IC50: 30 nM for the first, 31 nM for the second.

First: CC(=O)Nc1ncc(CN2C[C@@H](Cc3ncc(F)cn3)[C@H](C)C2)s1 (relative stereo) [Example 2-22, N-(5-(((trans)-3-((5-fluoropyrimidin-2-yl)methyl)-4-methylpyrrolidin-1-yl)methyl)thiazol-2-yl)acetamide]
Second: CC(=O)Nc1ncc(CN2CC(Cc3ncc(F)cn3)CC2C)s1 (stereo not drawn) [Example 2-17, N-(5-((4-((5-fluoropyrimidin-2-yl)methyl)-2-methylpyrrolidin-1-yl)methyl)thiazol-2-yl)acetamide]
The IC50 of the first is 18-fold higher: 36 nM for the first, 2 nM for the second.

CC(=O)Nc1nc(F)c(CN2CCC[C@H](Cc3cc(C)nc(C)n3)C2)s1 [Example 3-21, (R)-N-(5-((3-((2,6-dimethylpyrimidin-4-yl)methyl)piperidin-1-yl)methyl)-4-fluorothiazol-2-yl)acetamide] and COc1cc(C[C@H]2CCCN(Cc3sc(NC(C)=O)nc3F)C2)ncn1 [Example 3-22, (R)-N-(4-fluoro-5-((3-((6-methoxypyrimidin-4-yl)methyl)piperidin-1-yl)methyl)thiazol-2-yl)acetamide] cannot be ordered by IC50: < 1 nM for the first, < 1 nM for the second.

First: CC(=O)Nc1ncc(CN2CCCC(Cc3nccn3C)C2)s1 (stereo not drawn) [Example 4-22, N-(5-((3-((1-methyl-1H-imidazol-2-yl)methyl)piperidin-1-yl)methyl)thiazol-2-yl)acetamide]
Second: CC(=O)Nc1ncc(CN2CCCC(Cc3ccccn3)C2)s1 (stereo not drawn) [Example 1-2, N-(5-((3-(pyridin-2-ylmethyl)piperidin-1-yl)methyl)thiazol-2-yl)acetamide]
The IC50 of the first is 11-fold higher: 43 nM for the first, 4 nM for the second.

First: CC(=O)Nc1nc(F)c(CN2C[C@@H](Cc3noc(C)n3)C[C@@H]2C)s1 (single isomer, unassigned) [Example 4-12 Peak 1]
Second: CC(=O)Nc1nc(F)c(CN2C[C@@H](Cc3ncc(F)cn3)CC[C@@H]2C)s1 [Example 2-53, N-(4-fluoro-5-(((2S,5R)-5-((5-fluoropyrimidin-2-yl)methyl)-2-methylpiperidin-1-yl)methyl)thiazol-2-yl)acetamide]
The IC50 of the first is lower: < 1 nM for the first, 9.2 nM for the second. The first is the more potent here.

Going from CC(=O)Nc1ncc(CN2CCCC(Cc3cccc(C)n3)C2)s1 (stereo not drawn) [Example 1-29, N-(5-((3-((6-methylpyridin-2-yl)methyl)piperidin-1-yl)methyl)thiazol-2-yl)acetamide] to COc1cccc(CC2CCN(Cc3cnc(NC(C)=O)s3)C2)n1 (stereo not drawn) [Example 1-18, N-(5-((3-((6-methoxypyridin-2-yl)methyl)pyrrolidin-1-yl)methyl)thiazol-2-yl)acetamide], the IC50 rises from 2 nM to 17 nM (8.5-fold).

First: CC(=O)Nc1ncc(CN2CCCC(Cn3cc(C)cn3)C2)s1 (stereo not drawn) [Example 4-10, N-(5-((3-((4-methyl-1H-pyrazol-1-yl)methyl)piperidin-1-yl)methyl)thiazol-2-yl)acetamide]
Second: CC(=O)Nc1ncc(CN2CCCC(Cn3cc(F)cn3)C2)s1 (stereo not drawn) [Example 4-1, N-(5-((3-((4-fluoro-1H-pyrazol-1-yl)methyl)piperidin-1-yl)methyl)thiazol-2-yl)acetamide]
The IC50 of the first is 2.2-fold lower: 230 nM for the first, 500 nM for the second.

Going from COc1nc(C[C@H]2CCCN(Cc3cnc(NC(C)=O)s3)C2)nc(C)c1F [Example 3-8, (R)-N-(5-((3-((5-fluoro-4-methoxy-6-methylpyrimidin-2-yl)methyl)piperidin-1-yl)methyl)thiazol-2-yl)acetamide] to CC(=O)Nc1ncc(CN2CCCC(Cc3noc(C)n3)C2)s1 (stereo not drawn) [Example 4-19, N-(5-((3-((5-methyl-1,2,4-oxadiazol-3-yl)methyl)piperidin-1-yl)methyl)thiazol-2-yl)acetamide], the IC50 rises from 1 nM to 9.3 nM (9.3-fold). The first is the more potent here.

CC(=O)Nc1ncc(CN2CC[C@H](Cc3ccc(F)c(F)c3)C2)s1 (stereo in doubt) [Example 4-26, N-(5-((3-(3,4-difluorobenzyl)pyrrolidin-1-yl)methyl)thiazol-2-yl)acetamide] and COc1cncc(CC2CCN(Cc3cnc(NC(C)=O)s3)C2)c1 (stereo not drawn) [Example 1-20, N-(5-((3-((5-methoxypyridin-3-yl)methyl)pyrrolidin-1-yl)methyl)thiazol-2-yl)acetamide] are within 1.5-fold of each other in IC50: 56 nM for the first, 69 nM for the second.

Compared with CC(=O)Nc1ncc(CN2CCCC(Cn3cnc4ccccc43)C2)s1 (stereo not drawn) [Example 4-24, N-(5-((3-((1H-benzo[d]imidazol-1-yl)methyl)piperidin-1-yl)methyl)thiazol-2-yl)acetamide], COc1cncc(CC2CCCN(Cc3cnc(NC(C)=O)s3)C2)n1 (stereo not drawn) [Example 1-32, N-(5-((3-((6-methoxypyrazin-2-yl)methyl)piperidin-1-yl)methyl)thiazol-2-yl)acetamide] is 29-fold lower in IC50: 58 nM for the first, 2 nM for the second.

Going from CC(=O)Nc1ncc(CN2CCCC(C)(Cc3ncc(F)cn3)C2)s1 (stereo not drawn) [Example 2-34, N-(5-((3-((5-fluoropyrimidin-2-yl)methyl)-3-methylpiperidin-1-yl)methyl)thiazol-2-yl)acetamide] to CC(=O)Nc1ncc(CN2CC(Cc3ncc(F)cn3)C(F)(F)C2)s1 (stereo not drawn) [Example 3-3, N-(5-((3,3-difluoro-4-((5-fluoropyrimidin-2-yl)methyl)pyrrolidin-1-yl)methyl)thiazol-2-yl)acetamide], the IC50 rises from 450 nM to 920 nM (2-fold).

Compared with COc1cc(C[C@H]2CCN(Cc3sc(NC(C)=O)nc3F)C2)ccn1 [Example 3-32, (S)—N-(4-fluoro-5-((3-((2-methoxypyridin-4-yl)methyl)pyrrolidin-1-yl)methyl)thiazol-2-yl)acetamide], COc1cc(C[C@H]2CCN(Cc3sc(NC(C)=O)nc3F)C2)ncn1 [Example 3-31, (R)-N-(4-fluoro-5-((3-((6-methoxypyrimidin-4-yl)methyl)pyrrolidin-1-yl)methyl)thiazol-2-yl)acetamide] is 1.6-fold higher in IC50: 8.9 nM for the first, 14 nM for the second.

Going from CC(=O)Nc1nc(F)c(CN2CCC(C(C)c3ncc(F)cn3)C2)s1 (stereo not drawn) [Example 2-51, N-(4-fluoro-5-((3-(1-(5-fluoropyrimidin-2-yl)ethyl)pyrrolidin-1-yl)methyl)thiazol-2-yl)acetamide] to CC(=O)Nc1ncc(CN2C[C@H](Cc3ncc(F)cn3)C[C@@H]2C(F)(F)F)s1 (single isomer, unassigned) [Example 2-44], the IC50 rises from 1 nM to > 20000 nM. The first is the more potent here.

With COc1ccnc(CC2CCN(Cc3cnc(NC(C)=O)s3)C2)c1 (stereo not drawn) [Example 1-21, N-(5-((3-((4-methoxypyridin-2-yl)methyl)pyrrolidin-1-yl)methyl)thiazol-2-yl)acetamide] the IC50 was 13 nM.

From patent publication US11459324B2, “O-glycoprotein-2-acetamido-2-deoxy-3-D-glycopyranosidase inhibitors” (BIOGEN MA INC., priority 2018, dated 2022)
